For twelve molecules, inhibition, IC50 and Activity results are on record in ChEMBL document CHEMBL5634094, “Micafungin: A promising inhibitor of UBE2M in cancer cell growth suppression” (Eur J Med Chem, 2023).

pIC50: −log10 of the molar value. Active and inactive are the calls of the source. No cut-off for these calls is given here. Starred links: 1 amine or outer side, 2 acyl side, 3 side chain; linkers in the order of their positions; H or OH if unused. Positions of bridges follow the written chain, without caps; N, C: chain ends. Non-standard residues stand in square brackets, D forms with d. Residues, ends and D or L forms follow the SMILES beside them. *: point of attachment. hTyr(3S-OH,4S-OH,3'-OSO3H) = N[C@H](C(=O)O)[C@H](O)[C@@H](O)c1ccc(O)c(OS(=O)(=O)O)c1; Orn(4R-OH,5R-OH) = O=C([C@H](C[C@@H](O)[C@@H](O)N[*:3])N[*:1])[*:2]; Pro(3S-OH,4S-Me) = C[C@H]1CN[C@H](C(=O)O)[C@H]1O; X1 = CCCCCOc1ccc(-c2cc(-c3ccc(C(=O)*)cc3)no2)cc1; Gln(3R-OH) = NC(=O)C[C@@H](O)[C@H](N)C(=O)O; Hyp = O=C(O)[C@@H]1C[C@@H](O)CN1

Assay [1] deals with T1, NEDD8/NEDD8-conjugating enzyme Ubc12 (Homo sapiens, UniProt P61081+Q15843). As to the kind of experiment: Inhibition of GST-tagged recombinant human UBE2M/His-tagged human NEDD8 interaction by HTRF assay relative to control. The class given is protein-complex assay.
A short description of assay [2]: Inhibition of His-tagged recombinant human NAE expressed in Escherichia coli (BL21) by HTRF assay.
Assay [3] is filed under the species Homo sapiens. Nature of the assay: Inhibition of neddylation of His-tagged recombinant human NAE expressed in Escherichia coli (BL21) at 6.25 to 100 uM by Western blot analysis. As to conditions: dose 6.25-100 µM.
Assay [4] relates to AGS. As to the kind of experiment: Inhibition of global CULLIN neddylation in human AGS cells incubated for 24 hrs by immunoblot analysis. The class given is cell-based. The following applies: dose 5-40 µM.
For assay [5], the system named is AGS. Nature of the assay: Induction of cell cycle arrest at G2 phase in human AGS cells at 20 to 40 uM incubated for 24 hrs by PI staining based FACS analysis. The class given is functional. The following applies: dose 20-40 µM.
In assay [6] the test system is AGS. Nature of the assay: Inhibition of cell migration of human AGS cells at 50 uM incubated for 48 hrs by transwell assay. In kind it is functional, cell-based.
Assay [7] addresses T2, NEDD8-conjugating enzyme Ubc12 (Homo sapiens) (UniProt P61081).
T2 sequence (whole entry): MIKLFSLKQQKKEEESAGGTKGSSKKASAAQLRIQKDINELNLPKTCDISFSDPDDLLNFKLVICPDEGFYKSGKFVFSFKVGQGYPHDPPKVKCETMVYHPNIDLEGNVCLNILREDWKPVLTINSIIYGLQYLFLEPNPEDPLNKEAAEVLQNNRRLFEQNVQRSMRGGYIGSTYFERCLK
Nature of the assay: Binding affinity to GST-tagged recombinant human UBE2M assessed as protein stability at 65 degreeC incubated for 24 hrs by CETSA. The following applies: AGS.

Assay [8] concerns the target T2, NEDD8-conjugating enzyme Ubc12 (Homo sapiens). As to the kind of experiment: Binding affinity to GST-tagged recombinant human UBE2M assessed as protein stability at 55 to 60 degreeC incubated for 24 hrs by CETSA. In kind it is cell-based. As to conditions: AGS.
The test system of assay [9] is AGS. Nature of the assay: Induction of apoptosis in human AGS cells assessed as decrease in PARP-1 level at 5 to 40 uM incubated for 24 hrs by immunoblot analysis. In kind it is functional, cell-based. The following applies: dose 5-40 µM.
Assay [10] concerns the target T2, NEDD8-conjugating enzyme Ubc12 (Homo sapiens). As to the kind of experiment: Inhibition of […] conjugation to GST-tagged recombinant human UBE2M by pull-down based immunoprecipitation method.
For assay [11], the system named is AGS. Nature of the assay: Inhibition of cell migration of human AGS cells assessed as increase in E-CADHERIN level at 5 to 40 uM incubated for 48 hrs by Western blot analysis. The following applies: dose 5-40 µM. The class given is functional, cell-based.
The target of assay [12] is Cullin-1 (Homo sapiens) (UniProt Q13616). As to the kind of experiment: Inhibition of CULLIN-1 neddylation in human AGS cells incubated for 24 hrs by immunoblot analysis. The class given is cell-based. The following applies: dose 5-40 µM.
Assay [13] relates to AGS. Nature of the assay: Inhibition of cell migration of human AGS cells assessed as decrease in VIMENTIN level at 5 to 40 uM incubated for 48 hrs by Western blot analysis. The following applies: dose 5-40 µM. The class given is functional, cell-based.
Assay [14] relates to AGS. As to the kind of experiment: Induction of apoptosis in human AGS cells assessed as increase in NOXA level at 5 to 40 uM incubated for 24 hrs by immunoblot analysis. In kind it is functional, cell-based. As to conditions: dose 5-40 µM.
The test system of assay [15] is AGS. As to the kind of experiment: Inhibition of cell migration of human AGS cells at 50 uM incubated for 48 hrs by wound healing assay. The class given is functional, cell-based.
Assay [16] deals with AGS. Nature of the assay: Induction of cell cycle arrest at G2/M phase in human AGS cells at 20 to 40 uM incubated for 24 hrs by PI staining based FACS analysis. The following applies: dose 20-40 µM. In kind it is functional.
For assay [17], the system named is AGS. As to the kind of experiment: Inhibition of cell migration of human AGS cells assessed as decrease in SNAIL level at 5 to 40 uM incubated for 48 hrs by Western blot analysis. In kind it is functional, cell-based. As to conditions: dose 5-40 µM.
Assay [18] deals with AGS. Nature of the assay: Inhibition of colony formation of human AGS cells incubated for 10 days with replacement of drug containing medium every 3 days by crystal violet staining based analysis. The class given is functional, cell-based. As to conditions: dose 10-40 µM, time 10.0 day.
For assay [19], the target named is T2, NEDD8-conjugating enzyme Ubc12 (Homo sapiens). Nature of the assay: Inhibition of neddylation of GST-tagged recombinant human UBE2M expressed in Escherichia coli (BL21) by Western blot analysis. As to conditions: dose 6.25-100 µM.
Assay [20] relates to AGS. As to the kind of experiment: Induction of DNA damage in human AGS cells assessed as increase in phosphorylated H2Ax expression at 50 uM incubated for 48 hrs by immunofluorescence analysis. In kind it is functional, cell-based.
Assay [21] deals with AGS. As to the kind of experiment: Inhibition of cell viability in human AGS cells incubated for 72 to 120 hrs by MTT assay. The class given is functional, cell-based. As to conditions: dose 5-80 µM, time 72-120 hrs.
Assay [22] addresses Cullin-1 (Homo sapiens) (UniProt Q13616). As to the kind of experiment: Inhibition of CULLIN-1 neddylation in human AGS cells assessed as increase in p27 level at 5 to 40 uM incubated for 24 hrs by immunoblot analysis. In kind it is cell-based. As to conditions: dose 5-40 µM.
The target in assay [23] is T2, NEDD8-conjugating enzyme Ubc12 (Homo sapiens). Nature of the assay: Binding affinity to GST-tagged recombinant human UBE2M assessed as protein stability at 60 degreeC preincubated for 10 mins followed by heat exposure by TSA. As to conditions: dose 1.25-20 µM.
Assay [24] has as its target Cullin-1 (Homo sapiens) (UniProt Q13616). As to the kind of experiment: Inhibition of CULLIN-1 neddylation in human AGS cells assessed as increase in p21 level incubated for 24 hrs by immunoblot analysis. The following applies: dose 5-40 µM. The class given is cell-based.
Assay [25] concerns AGS. Nature of the assay: Inhibition of cell migration of human AGS cells assessed as increase in N-CADHERIN level at 5 to 40 uM incubated for 48 hrs by Western blot analysis. In kind it is functional, cell-based. The following applies: dose 5-40 µM.
Assay [26] addresses T3, NEDD8-conjugating enzyme Ubc12 (Homo sapiens, UniProt P61081).
T3 sequence (P61081 whole entry): T2 sequence (whole entry)
As to the kind of experiment: Inhibition of UBE2M neddylation in human AGS cells incubated for 3 days by immunoblot analysis. The class given is cell-based.

The test system of assay [27] is AGS. Nature of the assay: Induction of apoptosis in human AGS cells assessed as increase in cleaved caspase-3 level at 5 to 40 uM incubated for 24 hrs by immunoblot analysis. The class given is functional, cell-based. As to conditions: dose 5-40 µM.
The target in assay [28] is T2, NEDD8-conjugating enzyme Ubc12 (Homo sapiens). As to the kind of experiment: Binding affinity to GST-tagged recombinant human UBE2M assessed as protein stability upto 70 degreeC at 20 uM preincubated for 10 mins followed by heat exposure by TSA.
The target of assay [29] is T1, NEDD8/NEDD8-conjugating enzyme Ubc12. Nature of the assay: Inhibition of GST-tagged recombinant human UBE2M/His-tagged human NEDD8 interaction by HTRF assay. In kind it is protein-complex assay.
The test system of assay [30] is AGS. As to the kind of experiment: Induction of cell cycle arrest in human AGS cells assessed as decrease in cell population at S phase at 20 to 40 uM incubated for 24 hrs by PI staining based FACS analysis. The class given is functional. The following applies: dose 20-40 µM.

Chain of Cullin-1 (Homo sapiens) (Q13616 whole entry): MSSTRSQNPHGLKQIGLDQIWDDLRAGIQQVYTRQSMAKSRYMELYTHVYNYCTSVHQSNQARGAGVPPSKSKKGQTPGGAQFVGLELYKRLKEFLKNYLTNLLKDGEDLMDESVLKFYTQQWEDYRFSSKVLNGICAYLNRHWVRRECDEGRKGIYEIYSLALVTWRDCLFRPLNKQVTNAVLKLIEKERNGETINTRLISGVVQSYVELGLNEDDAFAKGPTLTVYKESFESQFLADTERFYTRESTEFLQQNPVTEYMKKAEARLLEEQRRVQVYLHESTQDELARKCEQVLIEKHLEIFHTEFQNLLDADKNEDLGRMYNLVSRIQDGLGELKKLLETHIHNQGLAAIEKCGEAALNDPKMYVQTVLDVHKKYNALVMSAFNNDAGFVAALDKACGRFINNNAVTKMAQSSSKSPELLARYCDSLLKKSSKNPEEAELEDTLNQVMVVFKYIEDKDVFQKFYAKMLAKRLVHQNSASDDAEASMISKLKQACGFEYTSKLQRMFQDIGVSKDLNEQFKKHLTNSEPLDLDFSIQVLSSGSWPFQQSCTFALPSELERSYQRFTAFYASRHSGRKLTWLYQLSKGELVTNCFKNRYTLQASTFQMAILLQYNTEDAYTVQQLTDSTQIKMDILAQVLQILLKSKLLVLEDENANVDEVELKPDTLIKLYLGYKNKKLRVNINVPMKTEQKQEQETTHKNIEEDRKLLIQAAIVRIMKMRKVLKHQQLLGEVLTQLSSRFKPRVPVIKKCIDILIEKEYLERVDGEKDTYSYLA
T1 sequence (Q15843 whole entry, one chain of several): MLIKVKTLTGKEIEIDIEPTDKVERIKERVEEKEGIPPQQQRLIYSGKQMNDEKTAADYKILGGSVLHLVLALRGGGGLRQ

As for `CN(C)c1ccc(O)c2c1C[C@H]1C[C@H]3[C@H](N(C)C)C(O)=C(C(N)=O)C(=O)[C@@]3(O)C(O)=C1C2=O`, the inhibition in [1] is 58.9%.
On the same count and under the same terms, to `Cc1cccc(N(C)C(=S)Oc2ccc3ccccc3c2)c1` belongs 55.2%; to `C[C@H]1c2cccc(O)c2C(=O)C2=C(O)[C@]3(O)C(=O)C(C(N)=O)=C(O)[C@@H](N(C)C)[C@@H]3[C@@H](O)[C@@H]21`, 78.1%; to `CN(C)c1cc(NC(=O)CNC(C)(C)C)c(O)c2c1C[C@H]1C[C@H]3[C@H](N(C)C)C(O)=C(C(N)=O)C(=O)[C@@]3(O)C(O)=C1C2=O`, 69.3%.
Turning to `NS(=O)(=O)OC[C@@H]1C[C@@H](n2ccc3c(N[C@H]4CCc5ccccc54)ncnc32)C[C@@H]1O` [PEVONEDISTAT], the pIC50 in assay [2] was 8.24.
As for `Cc1cc(Nc2ncc(Cl)c(Nc3ccccc3S(=O)(=O)C(C)C)n2)c(OC(C)C)cc1C1CCNCC1`, in [1], the inhibition worked out at 88.2%. Besides, the inhibition entry in assay [3] is “Active”.
For `CN(C)[C@@H]1C(O)=C(C(N)=O)C(=O)[C@@]2(O)C(O)=C3C(=O)c4c(O)cccc4[C@@](C)(O)[C@H]3[C@H](O)[C@@H]12`, the inhibition in [1] is 64.8%.
Consider `CCCCCOc1ccc(-c2cc(-c3ccc(C(=O)N[C@H]4C[C@@H](O)[C@@H](O)NC(=O)[C@@H]5[C@@H](O)[C@@H](C)CN5C(=O)[C@H]([C@H](O)CC(N)=O)NC(=O)[C@H]([C@H](O)[C@@H](O)c5ccc(O)c(OS(=O)(=O)O)c5)NC(=O)[C@@H]5C[C@@H](O)CN5C(=O)[C@H]([C@@H](C)O)NC4=O)cc3)no2)cc1` [MICAFUNGIN] (X1-[Orn(4R-OH,5R-OH)]T[Hyp][hTyr(3S-OH,4S-OH,3'-OSO3H)][Gln(3R-OH)][Pro(3S-OH,4S-Me)]; lactam 1-C), for which the inhibition entry in assay [4], in [6], in assay [10], in assay [11], in assay [12] and in [13] was “Active” each time. Moreover, the inhibition entry in [15], in [17], in assay [18], in [21], in assay [22] and in [25] was “Active” each time. The result in assay [5], in assay [8], in assay [9], in assay [14], in [16] and in assay [20] was Active. Moreover, the outcome in assay [27], in assay [28] and in assay [30] was Active. In addition, the result in assay [7] was inactive. In addition, the inhibition in assay [1] is 66.2%; in assay [19], “Dose-Dependent Effect”; in assay [24], “Dose-Dependent Effect”. The Activity entry in assay [23] was “Dose-Dependent Effect”. The inhibition entry in assay [3] is “inactive”. In addition, the pIC50 in assay [26] is 4.40; in assay [29], 4.77.
Take `CCCCCCCCCCCC[N+](C)(C)CCOc1ccccc1`: the inhibition in assay [1] turned out to be 56.5%.
For `CN(C)[C@@H]1C(O)=C(C(N)=O)C(=O)[C@@]2(O)C(O)=C3C(=O)c4c(O)cccc4[C@@](C)(O)[C@H]3C[C@@H]12`, the inhibition in assay [1] stood at 56.4%.
The same measure, in the same setting: to `COc1cccc2c1C(=O)c1c(O)c3c(c(O)c1C2=O)C[C@@](O)(C(=O)CO)C[C@@H]3O[C@H]1C[C@H](N)[C@H](O)[C@H](C)O1` belongs 76.5%.
As for `CCCCCCCCOc1ccccc1C(=O)Nc1ccc(C(=O)OCC[N+](C)(CC)CC)cc1`, the inhibition in [1] stood at 74.2%. The inhibition entry in assay [3] was “Active”.
